Test results from patent US20020137929A1, “1 - (3-heterocyclylphenyl) isothiourea, -isourea, -guanidine and -amidine herbicidal agents” (Intellectual Property Department, BASF Aktiengesellschaft, priority 1998, published 2002).

Key:
ABUTH (Velvetleaf) = experiment: Postemergence herbicidal evaluation; format: in vivo, Abutilon theophrasti; conditions: postemergence
Summary of the method: (§1)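 Visual 0–9 rating versus control (stand, vigor, malformation, size, chlorosis, overall appearance), taken four to five weeks post-spray. Two-week-old seedlings received roughly 0.0156–0.500 kg/ha active in acetone/water (50/50) with 0.5% TWEEN 20 via nozzle at 40 psi.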

AMBEL (Ragweed, Common) [1] = experiment: Postemergence herbicidal evaluation; format: in vivo, Ambrosia artemisifolia; conditions: postemergence
Summary of the method: as §1

[2] = test system: CHEAL (Lambsquarters, Common); experiment: Postemergence herbicidal evaluation; format: in vivo, Chenopodium album; conditions: postemergence
Summary of the method: as §1

ECHCG (Barnyardgrass) = experiment: Postemergence herbicidal evaluation; format: in vivo, Echinochloa crus-galli; conditions: postemergence
Summary of the method: as §1

[3] = test system: GLXMAW (Soybean, Williams); experiment: Postemergence herbicidal evaluation; format: in vivo, Glycine max, (L.) Merr. cv Williams; conditions: postemergence
Summary of the method: as §1

ORYSAT (Rice, Tebonnet) = experiment: Postemergence herbicidal evaluation; format: in vivo, Oryza sativa, (L.) Tebonnet; conditions: postemergence
Summary of the method: as §1

ZEAMX (Corn, Field) = experiment: Postemergence herbicidal evaluation; format: in vivo, Zea mays; conditions: postemergence
Summary of the method: as §1

AMBEL (Ragweed, Common) [4] = experiment: Preemergence herbicidal evaluation; format: in vivo, Ambrosia artemisifolia; conditions: rated 4-5 weeks after treatment
Summary of the method: (§2)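 Herbicidal effect scored visually, 0-9, at 4 to 5 weeks against a control; compound applied preemergence by aqueous acetone spray to seeded soil at about 0.0156 to 0.500 kg/ha.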

CASOB (Sicklepod) = experiment: Preemergence herbicidal evaluation; format: in vivo, Cassia obtusifolia; conditions: rated 4-5 weeks after treatment
Summary of the method: as §2

[5] = test system: CHEAL (Lambsquarters, Common); experiment: Preemergence herbicidal evaluation; format: in vivo, Chenopodium album; conditions: rated 4-5 weeks after treatment
Summary of the method: as §2

GALAP (Galium) = experiment: Preemergence herbicidal evaluation; format: in vivo, Galium aparine; conditions: rated 4-5 weeks after treatment
Summary of the method: as §2

CYPSE (Flatsedge) [6] = experiment: Preemergence weed control under flooded paddy conditions; format: in vivo, Cyperus serotinus; conditions: rated 3-4 weeks after treatment
Summary of the method: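 Herbicidal effect is scored visually on a 0-9 scale against an untreated control, three to four weeks after compounds are pipetted into the flood water (1.5 to 3 cm deep) over seeds planted in silt loam at 0.5 cm depth. Rates: about 0.0313 to 0.500 kg/ha.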

CYPIR (Rice Flatsedge) = experiment: Postemergence weed control under flooded paddy conditions; format: in vivo, Cyperus iria; conditions: postemergence weeds, rated 3 to 4 weeks after treatment
Summary of the method: (§3)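 Injury ratings (0–9 scale covering stand, vigor, malformation, size, chlorosis and overall appearance versus control) were made three to four weeks after treatment. Test material, about 0.0313 to 0.500 kg/ha a.i. in 50/50 v/v aqueous/acetone, was added to flood water 1.5 to 3 cm deep over 3 to 5 cm weeds and 1.5 to 2.5 leaf rice.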

CYPSE (Flatsedge) [7] = experiment: as above; format: in vivo, Cyperus serotinus; conditions: postemergence weeds, rated 3 to 4 weeks after treatment
Summary of the method: as §3

Structure (SMILES): CC(C)S(=O)(=O)NC(=O)CC1SC(=Nc2cc(-n3c(=O)cc(C(F)(F)F)n(C)c3=O)c(F)cc2Cl)N(C)C1=O (centres unmarked) [Compound 119, 2-{{2-Chloro-5-[3,6-dihydro-3-methyl-2,6-dioxo-4-(trifluoromethyl)-1(2H)-pyrimidinyl]-4-fluorophenyl}imino}-N-(isopropylsulfonyl)-3-methyl-4-oxo-5-thiazolidineacetamide]
- Herbicidal rating ABUTH (ABUTH (Velvetleaf); rate 0.0156 kg/ha): 9.0
- Herbicidal rating ABUTH (ABUTH (Velvetleaf); rate 0.0313 kg/ha): 9.0
- Herbicidal rating ABUTH (ABUTH (Velvetleaf); rate 0.0625 kg/ha): 9.0
- Herbicidal rating AMBEL (AMBEL (Ragweed, Common) [1]; rate 0.0156 kg/ha): 9.0
- Herbicidal rating AMBEL (AMBEL (Ragweed, Common) [1]; rate 0.0313 kg/ha): 9.0
- Herbicidal rating AMBEL (AMBEL (Ragweed, Common) [1]; rate 0.0625 kg/ha): 9.0
- Herbicidal rating CHEAL ([2]; rate 0.0156 kg/ha): 9.0
- Herbicidal rating CHEAL ([2]; rate 0.0313 kg/ha): 9.0
- Herbicidal rating CHEAL ([2]; rate 0.0625 kg/ha): 9.0
- Herbicidal rating ECHCG (ECHCG (Barnyardgrass); rate 0.0156 kg/ha): 0.0
- Herbicidal rating ECHCG (ECHCG (Barnyardgrass); rate 0.0313 kg/ha): 0.0
- Herbicidal rating ECHCG (ECHCG (Barnyardgrass); rate 0.0625 kg/ha): 1.0
- Herbicidal rating GLXMAW ([3]; rate 0.0156 kg/ha): 7.0
- Herbicidal rating GLXMAW ([3]; rate 0.0313 kg/ha): 8.5
- Herbicidal rating GLXMAW ([3]; rate 0.0625 kg/ha): 8.5
- Herbicidal rating ORYSAT (ORYSAT (Rice, Tebonnet); rate 0.0156 kg/ha): 1.5
- Herbicidal rating ORYSAT (ORYSAT (Rice, Tebonnet); rate 0.0313 kg/ha): 2.0
- Herbicidal rating ORYSAT (ORYSAT (Rice, Tebonnet); rate 0.0625 kg/ha): 3.0
- Herbicidal rating ZEAMX (ZEAMX (Corn, Field); rate 0.0156 kg/ha): 4.5
- Herbicidal rating ZEAMX (ZEAMX (Corn, Field); rate 0.0313 kg/ha): 5.5
- Herbicidal rating ZEAMX (ZEAMX (Corn, Field); rate 0.0625 kg/ha): 6.0
- Preemergence herbicidal rating AMBEL (AMBEL (Ragweed, Common) [4]; rate 0.0156 kg/ha): 0.0
- Preemergence herbicidal rating AMBEL (AMBEL (Ragweed, Common) [4]; rate 0.0313 kg/ha): 0.0
- Preemergence herbicidal rating AMBEL (AMBEL (Ragweed, Common) [4]; rate 0.0625 kg/ha): 0.0
- Preemergence herbicidal rating AMBEL (AMBEL (Ragweed, Common) [4]; rate 0.1250 kg/ha): 4.0
- Preemergence herbicidal rating AMBEL (AMBEL (Ragweed, Common) [4]; rate 0.2500 kg/ha): 4.0
- Preemergence herbicidal rating CASOB (CASOB (Sicklepod); rate 0.0156 kg/ha): 0.0
- Preemergence herbicidal rating CASOB (CASOB (Sicklepod); rate 0.0313 kg/ha): 0.0
- Preemergence herbicidal rating CASOB (CASOB (Sicklepod); rate 0.0625 kg/ha): 0.0
- Preemergence herbicidal rating CASOB (CASOB (Sicklepod); rate 0.2500 kg/ha): 3.0
- Preemergence herbicidal rating CHEAL ([5]; rate 0.0156 kg/ha): 9.0
- Preemergence herbicidal rating CHEAL ([5]; rate 0.0313 kg/ha): 9.0
- Preemergence herbicidal rating CHEAL ([5]; rate 0.0625 kg/ha): 9.0
- Preemergence herbicidal rating CHEAL ([5]; rate 0.1250 kg/ha): 9.0
- Preemergence herbicidal rating CHEAL ([5]; rate 0.2500 kg/ha): 9.0
- Preemergence herbicidal rating GALAP (GALAP (Galium); rate 0.0156 kg/ha): 0.0
- Preemergence herbicidal rating GALAP (GALAP (Galium); rate 0.0313 kg/ha): 0.0
- Preemergence herbicidal rating GALAP (GALAP (Galium); rate 0.0625 kg/ha): 0.0
- Preemergence herbicidal rating GALAP (GALAP (Galium); rate 0.1250 kg/ha): 0.0
- Preemergence herbicidal rating GALAP (GALAP (Galium); rate 0.2500 kg/ha): 4.0
- herbicidal effect rating, CYPSE (CYPSE (Flatsedge) [6]; 0.0313 kg/ha): 0.0
- herbicidal effect rating, CYPSE (CYPSE (Flatsedge) [6]; 0.0625 kg/ha): 0.0
- herbicidal effect rating, CYPSE (CYPSE (Flatsedge) [6]; 0.1250 kg/ha): 0.0
- herbicidal effect rating, CYPSE (CYPSE (Flatsedge) [6]; 0.2500 kg/ha): 1.0
- Herbicidal rating CYPIR (CYPIR (Rice Flatsedge); Rate 0.0313 kg/ha): 2.0
- Herbicidal rating CYPIR (CYPIR (Rice Flatsedge); Rate 0.1250 kg/ha): 6.0
- Herbicidal rating CYPIR (CYPIR (Rice Flatsedge); Rate 0.2500 kg/ha): 9.0
- Herbicidal rating CYPSE (CYPSE (Flatsedge) [7]; Rate 0.0313 kg/ha): 0.0
- Herbicidal rating CYPSE (CYPSE (Flatsedge) [7]; Rate 0.0625 kg/ha): 0.0
- Herbicidal rating CYPSE (CYPSE (Flatsedge) [7]; Rate 0.1250 kg/ha): 0.0
